Results from patent US20120232000A1, “METHODS AND COMPOSITIONS FOR PROMOTING REGENERATION BY INCREASING INTRACELLULAR SODIUM CONCENTRATION” (priority 2009, published 2012).
“Also recorded” adds a separate entry of the source.

Assays:
Type in all cases: in vivo, Xenopus laevis
NaV1.2 protein = experiment: Immunohistochemistry of NaV1.2 protein in the regeneration bud
Source text: In order to better understand the role of NaV1.2, we examined its potential relationships with known regenerative pathways. First, we investigated the pathways potentially regulating NaV1.2 expression. […] However, in amputated tails treated with Concanamycin, a specific inhibitor of V-ATPase activity (Huss et al., 2002) that blocks regeneration (Adams et al., 2007), the expression of NaV1.2 protein was absent at 24 and 48 hpa (FIGS. 4A-4C). […] We next examined NaV1.2 protein expression during the refractory stages, an endogenous period during development in which tadpoles temporarily lose the ability of caudal regeneration (Beck et al., 2003). NaV1.2 protein was not detected in 24-hour tail stumps amputated during this non-regenerative state (FIG. 4D).
(§1) Xenopus embryos were fixed overnight in MEMFA, heated for 2 hrs at 65° C. in 50% formamide (to inactivate endogenous alkaline phosphatases), permeabilized in PBTr+0.1% Triton X100 for 30 min, and processed for immunohistochemistry using alkaline phosphatase secondary antibody (Levin, 2004) until signal was optimal and background minimal (usually 12 hrs). The expression profiles represent consensus patterns obtained from the analysis of 8-12 embryos at each stage. Pan-anti-NaV (Sigma S-8809), anti-acetylated a-tubulin (Sigma #T6793), and anti-phospho-H3 (Upstate #05-598) antibodies were used at 1:1000.

Delta = experiment: Expression level of Delta in the regeneration bud (data not shown); details: in the presence of MS-222, data not shown
[1] = system: Xenopus tail regeneration; experiment: Tail regeneration assay, tails amputated at stages 40-41, scored at 7 days; details: for tail regeneration: treatment after amputation at st. 40, 7 days
Method: Xenopus laevis larvae were cultured using standard protocols approved for the care of experimental organisms. Tails at stages 40-41, or stages 45-47 (refractory period) (Nieuwkoop and Faber, 1967) were amputated under a dissecting microscope using a scalpel blade at the midpoint between the anus and the tip. Tadpoles were cultured in (0.1×MMR±inhibitor) at 22° C. for 7 days and scored for tail regeneration. Drug experiments were carried out at least in duplicate.
To quantify and compare regeneration efficiency of tadpoles treated with different reagents, the “Regeneration Index” (RI) was determined. The RI evaluates the efficiency of regeneration for each treatment and allows for comparison of the effect of various treatments to controls.
Individual animals for each specific treatment were each scored as follows:
Full: complete regeneration (indistinguishable from uncut controls).
Good: robust regeneration with minor defects (e.g., missing fin, curved axis).
Poor: poor regeneration (hypomorphic/defective regenerates).
For each treatment, the percentage of regenerates belonging to each category were calculated, and then multiplied by 3, 2, 1 or 0, respectively for, Full, Good, Poor and None. The resulting R1 for each condition tested ranges from 0 to 300, with 0 corresponding to no regeneration, and 300 for complete regeneration.
Xenopus laevis larvae were cultured via approved protocols (IACUC #M2008-08). Tails at stages 40-41, or stages 45-47 (refractory period) (Nieuwkoop and Faber, 1967) were amputated at the midpoint between the anus and the tip. Tadpoles were cultured in (0.1×MMR±reagent) at 22° C. for 7 days and scored for tail regeneration. […]

Xenopus tadpoles = experiment: Observation of overall development and movement of treated animals; details: during pharmacological treatment in the tail assay
Source text: (§2) To characterize the temporal requirement of NaV1.2 function during regeneration, we looked to utilize pharmacological inhibitors of NaV1.2 that will enable us to vary the timing of the functional blockade. First, we determined whether chemical inhibition of NaV1.2 activity recapitulates its loss-of-function phenotype during regeneration. MS-222 (also known as tricaine) is a well-known inhibitor of VGSCs (Hedrick and Winmill, 2003) that blocks inward Na^+ currents (Frazier and Narahashi, 1975). […]. […] Importantly, the μM concentrations used for the tail assays were approximately ten-fold lower than what is usually used for amphibian anesthesia (generally in the mM range). Similar to the NaV1.2 RNAi experiment, the overall development and movement of the animals were normal during pharmacological treatment, and had no effect on primary tail formation during early embryogenesis. We conclude that NaV1.2 function is specifically required for regeneration, and that both pharmacological and molecular loss-of-function to selectively reveal the importance of NaV1.2.

BMP4 = experiment: Expression level of BMP4 in the regeneration bud (data not shown); details: in the presence of MS-222, data not shown
Source text: (§3) RNA expression of Notch, Msx1, and BMP components can be observed after 24 hpa in the regenerating tail tissues. We performed in situ hybridization using gene-specific RNA probes to examine the expression patterns of Notch and Msx1 in the regeneration bud after treatment with MS-222. In wild-type regeneration buds at 48 hpa, Notch1 is normally expressed in the neural ampulla and in the mesenchymal region of the regeneration bud (FIGS. 4F and 4H). […] At 48 hpa, Msx1 was expressed in the neural ampulla and at the epithelial edge of the regenerating tail tip (FIGS. 4J and 4L). When NaV activity was blocked, Msx1 expression was abolished (FIGS. 4K and 4M).

Msx1 = experiment: RNA in situ hybridization of Msx1 in the regeneration bud; details: 48 hpa, MS-222 after amputation
Source text: as §3
(§4) Embryos were fixed in MEMFA (Sive et al., 2000) and dehydrated in methanol. In situ hybridization was carried out according to standard protocols (Harland, 1991) with probes to: NaV1.2 (AY121368), NaV1.5 (Armisen et al., 2002), Notch1 (Coffman et al., 1990), and Msx1 (Feledy et al., 1999).

axons of the regenerate = experiment: Acetylated α-tubulin staining of axons in tail regenerates; details: 72 hpa (3-day) tails, MS-222 treated
Source text: It has long been known that regenerative growth requires proper innervation (Singer, 1952, 1965). Thus, we asked whether NaV1.2 regulates neural regeneration by examining the neuronal pattern in the amputated tail of tadpoles treated with MS-222. In normal 3-day old tail regenerates, axons appear in bundles that grow and concentrate to the end of the regenerate, in a direction parallel to the anterior-posterior axis (FIG. 3G).
as §1

BMP2 = experiment: Expression level of BMP2 in the regeneration bud (data not shown); details: in the presence of MS-222, data not shown
Source text: as §3

[2] = system: Na^+ influx into the regeneration bud; experiment: Imaging of sodium flux with CoroNa Green indicator dye
Method: NaV1.2 is a membrane-bound Na^+ transporter that regulates the influx of Na^+ into cells (Yu and Catterall, 2003). Thus, we examined the functional consequences of Na^+ transport in regeneration using MS-222. […] In intact tails, a few randomly distributed cells appear positive for the CoroNa Green signal relative to the majority of the tail population (FIG. 3A). […] When the amputated tails were treated with the NaV inhibitor, MS-222, the CoroNa Green signal was abolished (FIG. 3C, p<0.02), confirming that inhibition of NaV1.2 function abrogates Na^+ influx into the bud.
At 23 hpa, tadpoles were incubated in 90 μM of CoroNa Green indicator dye (Invitrogen) in 0.1×MMR for 45 minutes and washed twice in 0.1×MMR+30 uM BTS (to immobilize tadpole movement). At 24 hpa, the CoroNa Green signal was excited at […] and fluorescence emission data was collected at […]. Data was analyzed using IPLab software. For induction of Na^+ current, 0.1×MMR was supplemented with sodium gluconate (Sigma) to increase the Na^+ concentration to 90 mM. For refractory period analysis, tails were amputated at st. 47, at 18 hpa, and animals were treated with or without 90 mM Na^+ and 20 μM monensin (Sigma) in 0.1×MMR with 90 μM CoroNa Green for 45 minutes and washed twice in 0.1×MMR+50 uM BTS. Imaging of Vmem using DiBAC4(3) (Invitrogen) was performed exactly as described in (Adams et al., 2007).

Notch1 = experiment: RNA in situ hybridization of Notch1 in the regeneration bud; details: 48 hpa, MS-222 after amputation
Source text: as §3, §4

regeneration bud = experiment: Apoptosis in the regeneration bud (data not shown); details: MS-222 after tail amputation
Source text: as §2

[3] = system: membrane voltage of regeneration bud cells; experiment: Imaging of membrane voltage with the voltage dye DiBAC4(3); details: 24 hpa, versus control
Source text: To gain a detailed mechanistic understanding of NaV1.2 activity, we examined the consequences of modulating Na^+ ion transport in the regenerating tail. During development, the intact tail is hyper-polarized with a few depolarized cells that are randomly distributed (Adams et al., 2007). However, after tail amputation, the presumptive regeneration bud becomes highly depolarized. […]. If the bud is polarized at this timepoint, then regeneration proceeds normally; if the bud remains depolarized (as when V-ATPase is inactivated, either during the refractory period or by Concanamycin), then regeneration fails. Because VGSC activity is also a well-known major determinant of a cell's membrane potential level, we hypothesized that loss of NaV1.2 activity could alter the membrane voltage state of the regeneration buds at 24 hpa.
At 23 hpa, tadpoles were incubated in 90 μM of CoroNa Green indicator dye (Invitrogen) in 0.1×MMR for 45 minutes and washed twice in 0.1×MMR+30 uM BTS (to immobilize tadpole movement). At 24 hpa, the CoroNa Green signal was excited at […] and fluorescence emission data was collected at […]. Data was analyzed using IPLab software. For induction of Na^+ current, 0.1×MMR was supplemented with sodium gluconate (Sigma) to increase the Na^+ concentration to 90 mM. For refractory period analysis, tails were amputated at st. […]

[4] = system: H3P-positive (mitotic) cells; experiment: Anti-H3P immunohistochemistry of mitotic cells in amputated tails; details: 48 hpa, versus control siblings
Source text: To understand the cellular basis for regenerative failure in animals with loss of NaV1.2 function, we examined proliferation in MS-222-treated amputated tails. During development, mitotic cells are observed to be randomly located in the growing tail. […]. We quantified the number and distribution of proliferating cells in regenerating tails at 48 hpa using an antibody to phosphorylated Histone 3B (H3P), a marker of the G2/M transition of the cell cycle that identifies mitotic cells in Xenopus and many other systems (Adams et al., 2007; Saka and Smith, 2001). […]. Many H3P-positive cells are seen in the wild-type regeneration bud (FIG. 3E) but very few are detected in MS-222 treated buds (FIG. 3F).
as §1

[5] = system: Xenopus tail regeneration during the refractory period; experiment: Tail regeneration assay, tails amputated during the refractory period (stages 45-47)
[6] = 24 hpa regeneration bud, MS-222 treated

C/C=C/[C@H]1O[C@@](O)([C@@H](C)[C@H](O)[C@H](C)[C@H]2OC(=O)/C(OC)=C/C(C)=C/[C@@H](C)[C@@H](O)[C@@H](CC)[C@@H](O)[C@H](C)C/C(C)=C/C=C/[C@@H]2OC)C[C@@H](O)[C@@H]1C [Concanamycin]
NaV1.2 protein expression in the regeneration bud (NaV1.2 protein; 24 hpa): absent | NaV1.2 protein expression in the regeneration bud (NaV1.2 protein; 48 hpa): absent

CCOC(=O)c1cccc(N)c1.CS(=O)(=O)O [MS-222]
level of Delta (Delta): greatly reduced | Regeneration Index (RI) ([1]; MS-222 (250 μM per FIG. 2B) immediately after tail amputation, scored at 7 days, RI 0-300, controls RI=265): 62 | effect on regeneration ([1]; MS-222 added at 48 hpa, after regenerative outgrowth has begun): no effect | tails that failed to regenerate ([1]; MS-222 for the first 48 hpa): 78% | tadpoles in which tail regeneration was prevented ([1]; MS-222 for the first 24 hours post amputation): 45% | tails with inhibited regeneration ([1]; MS-222 through the entire 7 days of the assay): 82% | tail regeneration [1]: failed to regenerate; also recorded: inhibition of regeneration is dosage-dependent | overall development and movement of the animals (Xenopus tadpoles): normal | level of BMP4 (BMP4): greatly reduced | Msx1 RNA expression (Msx1): abolished; also recorded: absent | axon pattern and quantity in the regenerate (axons of the regenerate): axons to extend circumferentially along the edge of the regeneration bud; also recorded: overall quantity of neurons appeared to be reduced | level of BMP2 (BMP2): greatly reduced | CoroNa Green signal / Na^+ entry into the bud [2, 6]: abolished; also recorded: blocks Na^+ entry into the bud | decrease in CoroNa Green signal versus control buds [2, 6]: 70% | Notch1 RNA expression (Notch1): greatly reduced; also recorded: greatly down-regulated and mis-localized | apoptosis in the bud (regeneration bud): did not induce significant apoptosis | change of membrane voltage in regeneration bud cells [3]: did not observe any changes in membrane voltage | decrease in the number of mitotic cells in the regeneration bud region [4]: 90%

CN[C@@H]1C[C@H]2O[C@@](C)([C@@H]1OC)n1c3ccccc3c3c4c(c5c6ccccc6n2c5c31)C(=O)NC4 [Staurosporine]
regenerative ability relative to controls ([1]; 10 nM STS on amputated tails): 28 % of controls | tail regeneration [1]: strong reduction | overall development and movement of the animals (Xenopus tadpoles): otherwise unaffected

CC[C@@]1([C@@H]2O[C@@H]([C@H]3O[C@@](O)(CO)[C@H](C)C[C@@H]3C)C[C@@H]2C)CC[C@H]([C@]2(C)CC[C@]3(C[C@H](O)[C@@H](C)[C@@H]([C@@H](C)[C@@H](OC)[C@H](C)C(=O)O)O3)O2)O1 [monensin]
Regeneration Index (RI) ([5]; 20 uM monensin in medium containing 90 mM Na^+ for one hour at 18 hpa, refractory controls 11.5, n=44): 59.1 | increase of regeneration over the control ([5]; 20 μM monensin with 90 mM Na^+, 1 hour at 18 hpa): 3 fold | tadpoles with induced regeneration ([5]; 20 μM monensin with 90 mM Na^+, 1 hour at 18 hpa, 7 dpa, controls 11%): 36% | regenerated tails showing good to full regeneration ([5]; 20 μM monensin with 90 mM Na^+, 1 hour at 18 hpa, share of the regenerating tails): 45% | regenerative ability ([5]; monensin alone, without high extracellular Na^+, data not shown): did not improve regenerative ability | CoroNa Green signal at the amputation site ([2]; refractory tails at 19 hpa, after one hour of 20 uM monensin in 90 mM Na^+ medium): strong CoroNa Green fluorescence; also recorded: significantly stronger CoroNa Green signal

insulin
animals showing good or full regeneration ([5]; insulin at 0 hours post amputation, assayed at 7 days, control 16%): 39% | Regeneration Index (RI) ([5]; insulin at 0 hours post amputation, assayed at 7 days, control RI=62, RI of 300 = full regeneration): 118
